# Measured values taken from ChEMBL document CHEMBL4765398, “Benzothiophene-2-carboxamide derivatives as SENPs inhibitors with selectivity within SENPs family” (Eur J Med Chem, 2020).
# Legend:
# [1] = Inhibition of recombinant human SNEP1 H529A mutant (419 to 644 residues) expressed in Escherichia coli (DE3) cells using RanGAP-SUMO2 substrate preincubated for 10 mins followed by substrate addition and measured after 25 min by Coomassie blue staining based SDS-PAGE analysis
# [2] = Inhibition of recombinant human SNEP1 W465A mutant (419 to 644 residues) expressed in Escherichia coli (DE3) cells using RanGAP-SUMO2 substrate preincubated for 10 mins followed by substrate addition and measured after 25 min by Coomassie blue staining based SDS-PAGE analysis
# [3] = Inhibition of recombinant human SNEP1 F496A mutant (419 to 644 residues) expressed in Escherichia coli (DE3) cells using RanGAP-SUMO2 substrate preincubated for 10 mins followed by substrate addition and measured after 25 min by Coomassie blue staining based SDS-PAGE analysis
# [4] = Inhibition of recombinant human SNEP1 Q597A mutant (419 to 644 residues) expressed in Escherichia coli (DE3) cells using RanGAP-SUMO2 substrate preincubated for 10 mins followed by substrate addition and measured after 25 min by Coomassie blue staining based SDS-PAGE analysis
# [5] = Inhibition of recombinant human SNEP1 K455A mutant (419 to 644 residues) expressed in Escherichia coli (DE3) cells using RanGAP-SUMO2 substrate preincubated for 10 mins followed by substrate addition and measured after 25 min by Coomassie blue staining based SDS-PAGE analysis
# [6] = target: T1, Sentrin-specific protease 5 (Homo sapiens, UniProt Q96HI0); test: Inhibition of recombinant human SNEP5 (567 to 755 residues) expressed in Escherichia coli (DE3) cells using RanGAP-SUMO2 substrate preincubated for 10 mins followed by substrate addition and measured after 25 min by Coomassie blue staining based SDS-PAGE analysis
# T1 sequence (Q96HI0 whole entry): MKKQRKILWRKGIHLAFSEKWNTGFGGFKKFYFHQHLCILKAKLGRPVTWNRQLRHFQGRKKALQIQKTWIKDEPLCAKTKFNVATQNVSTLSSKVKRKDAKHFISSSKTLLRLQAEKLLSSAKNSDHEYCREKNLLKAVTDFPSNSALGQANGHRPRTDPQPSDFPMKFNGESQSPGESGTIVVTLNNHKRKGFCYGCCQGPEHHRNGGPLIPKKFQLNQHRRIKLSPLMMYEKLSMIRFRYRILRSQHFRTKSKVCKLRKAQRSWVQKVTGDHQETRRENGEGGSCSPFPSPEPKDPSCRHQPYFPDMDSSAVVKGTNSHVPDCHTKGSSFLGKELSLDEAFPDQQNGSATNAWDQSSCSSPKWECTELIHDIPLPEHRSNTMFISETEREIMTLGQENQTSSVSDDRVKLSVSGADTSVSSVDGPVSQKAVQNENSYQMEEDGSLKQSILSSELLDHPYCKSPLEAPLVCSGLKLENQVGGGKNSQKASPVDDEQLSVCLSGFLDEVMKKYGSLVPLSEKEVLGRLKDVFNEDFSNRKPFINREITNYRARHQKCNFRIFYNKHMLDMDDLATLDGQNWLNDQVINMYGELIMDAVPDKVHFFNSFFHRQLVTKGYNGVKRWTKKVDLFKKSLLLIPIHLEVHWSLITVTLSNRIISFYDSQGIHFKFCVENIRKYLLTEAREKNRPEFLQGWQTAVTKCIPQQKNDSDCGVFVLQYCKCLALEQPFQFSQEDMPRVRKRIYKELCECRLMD
# [7] = target: T2, Sentrin-specific protease 2 (Homo sapiens, UniProt Q9HC62); test: Inhibition of recombinant human SNEP2 (365 to 589 residues) expressed in Escherichia coli (DE3) cells using RanGAP-SUMO2 substrate preincubated for 10 mins followed by substrate addition and measured after 25 min by Coomassie blue staining based SDS-PAGE analysis
# T2 sequence (Q9HC62 whole entry): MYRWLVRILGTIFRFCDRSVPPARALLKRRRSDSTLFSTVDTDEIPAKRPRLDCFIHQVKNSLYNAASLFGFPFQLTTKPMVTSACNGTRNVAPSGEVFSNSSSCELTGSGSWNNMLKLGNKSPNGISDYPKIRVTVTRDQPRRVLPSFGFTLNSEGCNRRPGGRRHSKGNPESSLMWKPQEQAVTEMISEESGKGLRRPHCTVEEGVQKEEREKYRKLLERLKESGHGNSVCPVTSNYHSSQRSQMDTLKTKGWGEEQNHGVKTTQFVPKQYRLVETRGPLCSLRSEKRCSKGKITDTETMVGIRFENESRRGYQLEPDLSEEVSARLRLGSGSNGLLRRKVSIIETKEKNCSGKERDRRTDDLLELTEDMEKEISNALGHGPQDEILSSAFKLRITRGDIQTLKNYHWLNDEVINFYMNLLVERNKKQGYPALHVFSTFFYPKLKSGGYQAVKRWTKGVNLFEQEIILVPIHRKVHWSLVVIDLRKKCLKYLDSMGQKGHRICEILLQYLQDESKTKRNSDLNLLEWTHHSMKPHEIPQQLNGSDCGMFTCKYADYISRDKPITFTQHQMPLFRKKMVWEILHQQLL
# [8] = target: T3, Sentrin-specific protease 1 (Homo sapiens, UniProt Q9P0U3); test: Inhibition of recombinant human SNEP1 (419 to 644 residues) expressed in Escherichia coli (DE3) cells using RanGAP-SUMO2 substrate preincubated for 10 mins followed by substrate addition and measured after 25 min by Coomassie blue staining based SDS-PAGE analysis
# T3 sequence (Q9P0U3 whole entry): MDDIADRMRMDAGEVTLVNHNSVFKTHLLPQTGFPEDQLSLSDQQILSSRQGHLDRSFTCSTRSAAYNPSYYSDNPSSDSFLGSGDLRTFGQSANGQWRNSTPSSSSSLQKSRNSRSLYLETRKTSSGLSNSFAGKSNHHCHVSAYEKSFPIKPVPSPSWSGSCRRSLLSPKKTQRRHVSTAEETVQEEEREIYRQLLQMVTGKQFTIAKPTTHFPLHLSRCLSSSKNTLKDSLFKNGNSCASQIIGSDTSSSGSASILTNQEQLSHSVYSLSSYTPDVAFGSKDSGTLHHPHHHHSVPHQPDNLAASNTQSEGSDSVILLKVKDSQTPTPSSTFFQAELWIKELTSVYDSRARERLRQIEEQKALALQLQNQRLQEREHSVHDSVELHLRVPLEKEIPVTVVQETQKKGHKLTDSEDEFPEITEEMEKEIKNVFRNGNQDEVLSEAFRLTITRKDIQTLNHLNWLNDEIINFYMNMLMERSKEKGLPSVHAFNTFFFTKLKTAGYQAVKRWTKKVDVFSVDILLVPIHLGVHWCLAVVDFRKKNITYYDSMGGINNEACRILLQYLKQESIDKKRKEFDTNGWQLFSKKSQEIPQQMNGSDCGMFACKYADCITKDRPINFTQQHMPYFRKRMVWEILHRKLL
SMILES,IC50 [1],IC50 [2],IC50 [3],IC50 [4],IC50 [5],IC50 [6],IC50 [7],IC50 [8]
CCOC(=O)CNc1ccc2sc(C(=O)NCc3cccc(NC(=O)c4cccs4)c3)c(OCc3ccccc3)c2c1,21.2 µM,40.7 µM,5.92 µM,22.4 µM,3.42 µM,–,–,–
CC(=O)Nc1cccc(CNC(=O)c2sc3ccccc3c2OCc2ccccc2)c1,–,–,–,–,–,28.9 µM,52.9 µM,25.4 µM
Nc1ccc(C(=O)Nc2cccc(CNC(=O)c3sc4ccccc4c3OCc3ccccc3)c2)cc1,–,–,–,–,–,> 100 µM,–,–
